Assay results as given in patent US10731164B2, “Aptamer conjugates with N-heterocyclic carbene metal complexes for targeted drug delivery” (University of Florida Research Foundation, Inc., priority 2014, dated 2020).

Columns and labels:
[1] = tested on: CCRF-CEM cell line; test: MTS cell viability assay, CCRF-CEM cell line; type: cell-based; conditions: 4 h incubation then 48 h
Procedure: All cell lines used in this research were cultured in American Type Culture Collection recommended medium, with 10% fetal bovine serum (Invitrogen, Carlsbad, Calif.) and 0.5 mg/mL penicillin-streptomycin (American Type Culture Collection) at 37° C. under a 5% CO2 atmosphere. CCRF-CEM (T-cell line) and K562 ([…]) were cultured in RPMI 1640 medium; MDA-MB-231 (breast cancer cells were cultured in L-15 medium; DU145 (prostate cancer cell) was cultured in EMEM medium; Hela (cervical cancer cell), HEK293 (human kidney cell) and HU1545v (human untransformed liver cell) were cultured in DMEM medium. Cells were washed before and after incubation with washing buffer [4.5 g/L glucose and 5 mM MgCl2 in Dulbecco's PBS with calcium chloride and magnesium chloride (Sigma-Aldrich)]. Binding buffer was prepared by adding yeast tRNA (0.1 mg/mL; Sigma-Aldrich) and BSA (1 mg/mL; Fisher Scientific) to the washing buffer to reduce background binding. All reagents for buffer preparation and HPLC purification came from Fisher Scientific. […]
A cell viability assay to measure the cytotoxicity of the aptamer-drug conjugate 21 and aptamer-ligand conjugate 28 were performed, as indicated in FIG. 13. […] The assay was allotted 2 h at 37° C. for development, and then the 490 nm absorbance of each well was collected on a Tecan plate 110 reader. […]

[2] = tested on: cis-platin resistant cancer cells; conditions: background; cited from earlier work
[3] = tested on: cervical carcinoma (HeLa) cells; conditions: background; cited from earlier work
[4] = tested on: CCRF-CEM cells; test: Flow cytometry analysis, CCRF-CEM cells; type: cell-based; conditions: 250 nM, 2 h at 4° C.
Procedure: Flow Cytometry Analysis was conducted as follows. Cells were plated in a 35 mm cell culture dish (Corning Incorporated, Corning, N.Y., USA) and grown to around 80% confluency for 24 h before the experiments. Cells were washed twice with 1 mL PBS and then incubated with the prepared aptamer-drug conjugate and LIB-drug conjugate at the concentration of 250 nM for 2 h at 4° C. After incubation, cells were washed with washing buffer three times, dispersed in 80 μL binding buffer, and finally subjected to flow cytometry analysis using a FACScan cytometer (Becton Dickinson Immunocytometry Systems, San Jose, Calif., USA). Fluorescence was determined by counting 30,000 events, and data were analyzed with FlowJo software.
Flow cytometry assays of conjugate 30 (sgc8c-27) with the K562 cell line (left) and the CCRF-CEM cell line are shown in FIGS. 26A and 26B, respectively. Random aptamer sequences conjugated to 27 to create LIB-27 were used as negative control. […] In Similar manner, flow cytometry analysis of MDA-MB-231 cell, PC3 cell, HEK293 cell and HU1545 cell, FIGS. 27A-27D, respectively, after incubated with 32 (AS1411-29) were conducted. AS1411 aptamer was used as positive control, and random library sequences was used as negative control.

1-(anthracen-9-ylmethyl)-3-(4-N-sgc8c-aptamer-carbamoylbenzyl) benzo[d]imidazolium gold(I) chloride [complex 27]
IC50 [1]: 31.1 ± 2.11 µM

CC(=O)OC[C@H]1O[C@@H]([S-])[C@H](OC(C)=O)[C@@H](OC(C)=O)[C@@H]1OC(C)=O.CCP(CC)CC.[Au+] [Auranofin]
effect against cis-platin resistant cancer cells [2]: effective
activity against HeLa cells in vitro [3]: highly active

sgc8c: leukemia-specific aptamer 5′-ATCTAACTGCTGCGCCGCCGGGAAAATACTGTACGGTTAGA-3′ (ATCTAACTGCTGCGCCGCCGGGAAAATACTGTACGGTTAGA; listed as DNA, chemistry not fully specified)
fluorescence intensity of cells (flow cytometry) [4]: fluorescence intensity increases
